Results from patent publication US8673908B2, “Kynurenine production inhibitor” (Kyowa Hakko Kirin Co., Ltd., priority 2008, dated 2014).

Tested on: kynurenine production in IFN-γ-treated KATO-III cells
Experiment: Inhibitory activity on kynurenine production (Test Example 1)
Format: cell-based
Conditions: Homo sapiens, IFN-γ treatment, culture for 96 hours, read-out: IC50 value, inhibition of kynurenine production
Procedure, shortened: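 KATO-III human gastric cancer cells (2,000/well, RPMI 1640 + 10% FBS) were cultured with compound and IFN-γ (31.25 ng/mL in the cell suspension), DMSO ≤0.1%, for 96 h at 37 °C, 5% CO2. Kynurenine was read at A480 after TCA at 65 °C and p-dimethylaminobenzaldehyde. Inhibition used IFN-γ-treated and untreated DMSO wells as references.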

**Q.** For O=S(=O)(Nc1nc2ccccc2nc1OC(c1cccnc1)C(F)(F)F)c1ccccc1Cl (stereo not drawn) [Compound 138, 2-Chloro-N-{3-[2,2,2-trifluoro-1-(pyridin-3-yl)ethoxy]-quinoxalin-2-yl}benzenesulfonamide], which IC50 is on record?
**A.** < 1 µM

**Q.** Which IC50 does the source give for CN(C)C(=O)c1ccc(C(Oc2nc3ccccc3nc2NS(=O)(=O)c2ccccc2Cl)C(F)(F)F)cc1 (stereo not drawn) [Compound 63, 2-chloro-N-{3-[2,2,2-trifluoro-1-(4-dimethylcarbamoyl-phenyl)ethoxy]quinoxalin-2-yl}benzenesulfonamide] here?
**A.** < 1 µM

**Q.** How did the IC50 turn out when O=S(=O)(CC1CC1)Nc1nc2ccccc2nc1OC(c1ccc(Cl)nc1)C(F)(F)F (stereo not drawn) [Compound 308, 1-cyclopropyl-N-{3-[1-(6-chloropyridin-3-yl)-2,2,2-trifluoroethoxy]quinoxalin-2-yl}methanesulfonamide] was run?
**A.** < 1 µM

**Q.** With CN(C)S(=O)(=O)Nc1nc2ccccc2nc1OC(c1cccnc1)C(F)(F)F (stereo not drawn) [Compound 174, N-{3-[2,2,2-trifluoro-1-(pyridin-3-yl)ethoxy]quinoxalin-2-yl}-N′,N′-dimethyl-sulfuric diamide] as the molecule, how does the IC50 read?
**A.** < 1 µM

**Q.** Which IC50 does the source give for CCCS(=O)(=O)Nc1nc2ccccc2nc1OC(c1csc(C)n1)C(F)(F)F (stereo not drawn) [Compound 344, N-{3-[2,2,2-trifluoro-1-(2-methylthiazol-4-yl)ethoxy]-quinoxalin-2-yl}propane-1-sulfonamide] here?
**A.** < 1 µM

**Q.** Which IC50 does the source give for CC(C)(Oc1nc2ccccc2nc1NS(=O)(=O)c1ccccc1Cl)c1cccnc1 [Compound 91, 2-chloro-N-{3-[1-methyl-1-(pyridin-3-yl)ethoxy]quinoxalin-2-yl}benzenesulfonamide] here?
**A.** 1 to 10 µM

**Q.** With O=S(=O)(CC1CC1)Nc1nc2ccccc2nc1O[C@H](c1cccnc1)C(F)(F)F [Compound 307, (R)-1-cyclopropyl-N-{3-[2,2,2-trifluoro-1-(pyridin-3-yl)-ethoxy]quinoxalin-2-yl}methanesulfonamide] as the molecule, how does the IC50 read?
**A.** < 1 µM

**Q.** Which IC50 does the source give for CCCS(=O)(=O)Nc1nc2ccccc2nc1OC(c1cncc(OC)c1)C(F)(F)F (stereo not drawn) [Compound 334, N-{3-[2,2,2-trifluoro-1-(5-methoxypyridin-3-yl)ethoxy]-quinoxalin-2-yl}propane-1-sulfonamide] here?
**A.** < 1 µM

**Q.** Which IC50 does the source give for O=S(=O)(Nc1nc2ccccc2nc1OCCCc1cccnc1)c1cccc(Cl)c1Cl [Compound 159, 2,3-dichloro-N-{3-[3-(pyridin-3-yl)propoxy]quinoxalin-2-yl}benzenesulfonamide] here?
**A.** < 1 µM

**Q.** Which IC50 does the source give for Cc1nn(C)c(Cl)c1S(=O)(=O)Nc1nc2ccccc2nc1OC(C1CCSCC1)C(F)(F)F (stereo not drawn) [Compound 130, 5-chloro-1,3-dimethyl-N-{3-[2,2,2-trifluoro-1-(tetrahydro-2H-thiopyran-4-yl)ethoxy]quinoxalin-2-yl}-1H-pyrazole-4-sulfonamide] here?
**A.** < 1 µM

**Q.** Which IC50 does the source give for COC1(COc2nc3ccccc3nc2NS(=O)(=O)c2ccccc2Cl)CCOCC1 [Compound 247, 2-chloro-N-{3-[(4-methoxytetrahydro-2H-pyran-4-yl)methoxy]-quinoxalin-2-yl}benzenesulfonamide] here?
**A.** 1 to 10 µM

**Q.** Which IC50 does the source give for CCCS(=O)(=O)Nc1nc2ccccc2nc1O[C@H](c1cccnc1)C(F)(F)F [Compound 312, (R)—N-{3-[2,2,2-trifluoro-1-(pyridin-3-yl)ethoxy]-quinoxalin-2-yl}propane-1-sulfonamide] here?
**A.** < 1 µM

**Q.** How did the IC50 turn out when O=S(=O)(Nc1nc2ccccc2nc1OC(C1CCOCC1)C(F)(F)F)NC1CC1 (stereo not drawn) [Compound 299, N-{3-[2,2,2-trifluoro-1-(tetrahydro-2H-pyran-4-yl)ethoxy]-quinoxalin-2-yl}-N′-cyclopropyl-sulfuric diamide] was run?
**A.** < 1 µM

**Q.** For COc1cncc(C(Oc2nc3ccccc3nc2NS(=O)(=O)c2ccccc2Cl)C(F)(F)F)c1 (stereo not drawn) [Compound 71, 2-chloro-N-{3-[2,2,2-trifluoro-1-(5-methoxypyridin-3-yl)-ethoxy]quinoxalin-2-yl}benzenesulfonamide], which IC50 is on record?
**A.** < 1 µM

**Q.** How did the IC50 turn out when Cc1cc(S(=O)(=O)Nc2nc3ccccc3nc2OC(c2cccnc2)C(F)(F)F)c(C)s1 (stereo not drawn) [Compound 162, 2,5-dimethyl-N-{3-[2,2,2-trifluoro-1-(pyridin-3-yl)ethoxy]-quinoxalin-2-yl}thiophene-3-sulfonamide] was run?
**A.** < 1 µM

**Q.** How did the IC50 turn out when CCCS(=O)(=O)Nc1nc2ccccc2nc1OC(c1cccnc1)C1(F)CCOCC1 (stereo not drawn) [Compound 94, N-{3-[4-fluorotetrahydropyran-4-yl(pyridin-3-yl)methoxy]-quinoxalin-2-yl}propane-1-sulfonamide] was run?
**A.** < 1 µM

**Q.** How did the IC50 turn out when O=S(=O)(Nc1nc2ccccc2nc1OC(C1CCOC1)C(F)(F)F)c1ccccc1Cl (stereo not drawn) [Compound 136, 2-chloro-N-{3-[2,2,2-trifluoro-1-(tetrahydrofuran-3-yl)-ethoxy]quinoxalin-2-yl}benzenesulfonamide] was run?
**A.** < 1 µM

**Q.** With CC(C)(COc1nc2ccccc2nc1NS(=O)(=O)c1ccccc1Cl)c1cccnc1 [Compound 167, 2-chloro-N-{3-[2-methyl-2-(pyridin-3-yl)propoxy]quinoxalin-2-yl}benzenesulfonamide] as the molecule, how does the IC50 read?
**A.** < 1 µM

**Q.** How did the IC50 turn out when CC(C)(C)C(Oc1nc2ccccc2nc1NS(=O)(=O)c1cccc(Cl)c1Cl)c1cccnc1 (stereo not drawn) [Compound 37, 2,3-dichloro-N-{3-[2,2-dimethyl-1-(pyridin-3-yl)propoxy]-quinoxalin-2-yl}benzenesulfonamide] was run?
**A.** < 1 µM

**Q.** Which IC50 does the source give for O=S(=O)(Nc1nc2ccccc2nc1OC(C1CC1)C(F)(F)F)c1ccccc1Cl (stereo not drawn) [Compound 117, 2-chloro-N-[3-(1-cyclopropyl-2,2,2-trifluoroethoxy)-quinoxalin-2-yl]benzenesulfonamide] here?
**A.** < 1 µM

**Q.** With CCOCC(C)Oc1nc2ccccc2nc1NS(=O)(=O)c1ccccc1Cl (stereo not drawn) [Compound 232, 2-chloro-N-[3-(1-ethoxypropan-2-yloxy)quinoxalin-2-yl]-benzenesulfonamide] as the molecule, how does the IC50 read?
**A.** 1 to 10 µM

**Q.** How did the IC50 turn out when COc1ccc(C(Oc2nc3ccccc3nc2NS(=O)(=O)c2ccccc2Cl)C(F)(F)F)cc1 (stereo not drawn) [Compound 40, 2-chloro-N-{3-[2,2,2-trifluoro-1-(4-methoxyphenyl)ethoxy]-quinoxalin-2-yl}benzenesulfonamide] was run?
**A.** < 1 µM

**Q.** Which IC50 does the source give for CCCNS(=O)(=O)Nc1nc2ccccc2nc1OC(C1CCN(C)CC1)C(F)(F)F (stereo not drawn) [Compound 328, N-propyl-N′-{3-[2,2,2-trifluoro-1-(1-methylpiperidin-4-yl)ethoxy]quinoxalin-2-yl}sulfuric diamide] here?
**A.** 1 to 10 µM

**Q.** How did the IC50 turn out when O=S(=O)(Nc1nc2ccccc2nc1OC(c1cnc(Cl)s1)C(F)(F)F)c1ccccc1Cl (stereo not drawn) [Compound 110, 2-chloro-N-{3-[2,2,2-trifluoro-1-(2-chlorothiazol-5-yl)-ethoxy]quinoxalin-2-yl}benzenesulfonamide] was run?
**A.** < 1 µM

**Q.** With Cc1noc(C)c1S(=O)(=O)Nc1nc2ccccc2nc1OC(C1CCOCC1)C(F)(F)F (stereo not drawn) [Compound 119, 3,5-dimethyl-N-{3-[2,2,2-trifluoro-1-(tetrahydro-2H-pyran-4-yl)ethoxy]quinoxalin-2-yl}isoxazole-4-sulfonamide] as the molecule, how does the IC50 read?
**A.** < 1 µM

**Q.** With O=S(=O)(Nc1nc2ccccc2nc1OC(C(F)(F)F)C(F)(F)F)c1ccccc1Cl [Compound 321, 2-chloro-N-{3-[(1,1,1,3,3,3-hexafluoropropan-2-yl)oxy]-quinoxalin-2-yl}benzenesulfonamide] as the molecule, how does the IC50 read?
**A.** < 1 µM

**Q.** For O=S(=O)(Nc1nc2ccccc2nc1OC(c1ccc(C(F)(F)F)cc1)C(F)(F)F)c1ccccc1C(F)(F)F (stereo not drawn) [Compound 35, 2-(trifluoromethyl)-N-{3-[2,2,2-trifluoro-1-(4-trifluoromethylphenyl)ethoxy]quinoxalin-2-yl}benzenesulfonamide], which IC50 is on record?
**A.** < 1 µM
